Values quoted from earlier work as cited in patent US9107877B2, “Method of treating onychomycosis” (Polichem SA, priority 2013, dated 2015).

Tests used:
[1] = tested on: onychomycosis; conditions: 48 weeks of daily topical treatment, 12-week follow up
[2] = tested on: onychomycosis; conditions: oral, 250 mg tablet a day for 12 weeks

SMILES	Complete cure [1]	Responders [1] [%]	Complete cure, % of patients [2] [%]
Cc1cc(C2CCCCC2)n(O)c(=O)c1 [ciclopirox]	about 13%	~30	
CN(C/C=C/C#CC(C)(C)C)Cc1cccc2ccccc12 [terbinafine]			38
